Literature values as cited in US20120263660A1, “Hair Loss Treatment” (POP TEST CORTISOL LLC, priority 2011, published 2012).

Legend:
[1] = biological target: T1, glucocorticoid receptor [GR] (Homo sapiens, UniProt P04150); settings: disclosed in U.S. Pat. No. 6,011,025
T1 sequence (P04150 1-777): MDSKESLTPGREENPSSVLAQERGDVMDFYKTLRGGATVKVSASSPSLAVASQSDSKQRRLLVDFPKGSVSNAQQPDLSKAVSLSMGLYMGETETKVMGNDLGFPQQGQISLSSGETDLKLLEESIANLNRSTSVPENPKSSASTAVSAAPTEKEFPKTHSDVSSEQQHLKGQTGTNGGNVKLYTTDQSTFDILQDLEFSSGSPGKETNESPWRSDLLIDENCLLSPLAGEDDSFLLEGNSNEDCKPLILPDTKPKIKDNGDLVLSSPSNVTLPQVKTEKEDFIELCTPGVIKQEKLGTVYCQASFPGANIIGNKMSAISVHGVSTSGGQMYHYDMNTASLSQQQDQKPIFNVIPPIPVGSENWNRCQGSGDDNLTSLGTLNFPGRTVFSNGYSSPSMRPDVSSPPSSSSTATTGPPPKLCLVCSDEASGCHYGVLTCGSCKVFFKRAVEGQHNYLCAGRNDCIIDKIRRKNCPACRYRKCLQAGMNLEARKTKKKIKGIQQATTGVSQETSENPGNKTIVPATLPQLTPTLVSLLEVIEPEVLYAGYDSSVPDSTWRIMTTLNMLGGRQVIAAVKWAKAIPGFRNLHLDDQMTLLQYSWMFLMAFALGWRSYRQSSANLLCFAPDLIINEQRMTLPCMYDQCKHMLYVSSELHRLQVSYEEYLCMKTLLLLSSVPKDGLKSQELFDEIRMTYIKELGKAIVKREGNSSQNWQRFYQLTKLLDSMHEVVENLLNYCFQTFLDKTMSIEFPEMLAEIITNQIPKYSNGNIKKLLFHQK

[2] = disclosed in U.S. Pat. No. 6,011,025
[3] = disclosed in U.S. Pat. No. 6,011,025; remark: listed apart in the source
[4] = biological target: T2, progesterone receptor (Homo sapiens, UniProt P06401); settings: specificity for GR blockade
T2 sequence (P06401 1-933): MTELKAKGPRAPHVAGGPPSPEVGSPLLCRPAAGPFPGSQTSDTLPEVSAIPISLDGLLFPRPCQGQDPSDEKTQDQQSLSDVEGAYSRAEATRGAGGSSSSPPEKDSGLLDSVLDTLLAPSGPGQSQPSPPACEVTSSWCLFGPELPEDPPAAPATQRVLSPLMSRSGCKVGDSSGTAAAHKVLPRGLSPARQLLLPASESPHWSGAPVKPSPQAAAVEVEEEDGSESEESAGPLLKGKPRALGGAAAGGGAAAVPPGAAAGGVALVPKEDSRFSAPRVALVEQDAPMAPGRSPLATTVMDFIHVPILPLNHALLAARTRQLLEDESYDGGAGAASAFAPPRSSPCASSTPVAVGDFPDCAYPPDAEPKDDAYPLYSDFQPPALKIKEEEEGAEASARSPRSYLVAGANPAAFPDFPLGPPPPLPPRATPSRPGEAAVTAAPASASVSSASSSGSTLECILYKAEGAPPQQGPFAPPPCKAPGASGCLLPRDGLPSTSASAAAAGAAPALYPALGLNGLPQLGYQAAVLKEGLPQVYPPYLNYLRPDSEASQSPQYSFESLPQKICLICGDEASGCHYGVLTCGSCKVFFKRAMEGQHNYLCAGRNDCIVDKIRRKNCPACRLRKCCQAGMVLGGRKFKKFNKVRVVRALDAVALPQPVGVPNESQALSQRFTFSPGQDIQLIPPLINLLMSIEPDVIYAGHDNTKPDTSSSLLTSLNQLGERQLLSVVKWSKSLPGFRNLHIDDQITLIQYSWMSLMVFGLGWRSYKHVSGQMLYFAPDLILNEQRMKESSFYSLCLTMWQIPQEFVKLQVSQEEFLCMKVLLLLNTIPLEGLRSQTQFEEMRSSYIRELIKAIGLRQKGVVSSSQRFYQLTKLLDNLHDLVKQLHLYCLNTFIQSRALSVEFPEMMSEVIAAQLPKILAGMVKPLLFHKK

[5] = test system: estrogen receptor; settings: specificity for GR blockade
[6] = all phase I and phase II clinical trials already performed

## CC#C[C@]1(O)CC[C@H]2[C@@H]3CCC4=CC(=O)CCC4=C3[C@@H](c3ccc4c(c3)OCO4)C[C@@]21C [ORG 34517]
[1]
  GR binding affinity: high
[2]
  androgenic activity: low
[3]
  progestagenic activity: low
[4]
  cross-binding to progesterone receptor: without significant cross-binding
[5]
  cross-binding to estrogen receptor: without significant cross-binding
[6]
  significant toxicities and side effects: none were identified
